Laboratory results taken from patent publication US20100048545A1, “Compounds and Compositions for Use in the Prevention and Treatment of Disorders of Fat Metabolism and Obesity” (INNODIA INC., priority 2006, published 2010).
Entries after “also recorded” stand apart in the source; their conditions may differ. Counter-ions that a name gives are not always drawn.

Key:
[1] = tested on: Diet-Induced Obesity (DIO) mouse model; assay: Compound 13e on body weight gain in the Diet-Induced Obesity (DIO) mouse model, 21 days; type: in vivo, C57BL/6 mice
Procedure: The objective of this study was to determine the effect of one analog according to the invention, namely Compound 13e, on body weight gain in the Diet-Induced Obesity (DIO) mouse model.
C57BL/6 mice were received at 7-8 weeks of age and fed a high fat diet (60% of calories from fat) for 8 weeks. Fasted glycemia and body weight values were used to randomize the mice into control and treatment groups (n=8). The average basal glycemia was between 213 and 215 mg/dL for all groups. The animals were treated twice daily by oral gavage with Compound 13e (25 or 50 mg per kg of body weight), and the control group received vehicle (200 mM bicarbonate buffer/0.1% Tween-20™, pH=9) alone. The animals were treated for 21 days. Body weight of the mice was measured on a frequent basis during the treatment. At the end of the study, the epididymal fat pads were isolated and weighed. Data are expressed as mean±SEM of body weight and mean±SEM of fat pad weight.

[2] = tested on: C57BL/6 mice fed a high fat diet; assay: Analogs and isomers of 4-hydroxyisoleucine on body weight gain in C57BL/6 mice fed a high fat diet, 3 days; type: in vivo; details: for body weight gain induced by the high fat diet: 100 mg/kg twice daily oral gavage; for efficacy relative to compound 14a: 100 mg/kg twice daily
Procedure: C57BL/6 mice were received at 6-7 weeks of age and fed a standard commercial chow for 1 week (acclimation period). The animals were randomized based on their body weight values, into control and treatment groups (n=6). Then, animals were shifted to a high fat diet (60% of calories from fat) and treated twice daily by oral gavage with 4-hydroxyisoleucine (4-OH, compound 14a) or different analogs and isomers of 4-OH at the dose of 100 mg per kg of body weight for 3 days. The control group (Control HFD) received vehicle (water) alone and a group was kept under standard chow (Control Lean). Body weight of the mice was recorded daily. Two different experiments were run and the effect on body weight gain of selected analogs and isomers according to the invention is presented in FIG. 30A (Experiment 1) and FIG. 30B (Experiment 2).

[3] = tested on: 3T3-L1 pre-adipocytes; assay: Lipid accumulation in 3T3-L1 adipocytes (Oil red O, OD 490 nm); type: cell-based; details: 7 days in differentiation medium, compared to controls
Description: The objective of the study was to evaluate if the compounds of the present invention, and more particularly analogs of 4-Hydroxyisoleucine, can decrease the accumulation of lipids in pre-adipocytes induced to differentiate into functional adipocytes. […] Treating the fibroblasts with a differentiation medium containing insulin, dexamethasone and […] (IBMX) in the presence of serum induces these cells to become terminally differentiated adipocytes. These cells convert to spherical shape and accumulate lipid droplets.
3T3-L1 were cultured in presence of DMEM and 10% FBS for a week in 6-well plates. The medium was than changed to induce differentiation of cells into mature adipocytes. The medium consisted of DMEM, 10% FBS, 0.5 mM IBMX, 0.01 mg/ml insulin and 0.1 μM dexamethasone, with or without compounds of the present invention. The cells were cultured for 7 days and then stained with Oil red 0, a dye which specifically stain lipids. The fat content of treated and untreated cells was quantified by measuring the optical density (OD, 490 nm) with a spectrophotometer.

[4] = tested on: Diet Induced Obesity (DIO)-Mice; type: in vivo
Procedure: A total of 40 animals were used in the study. The animals were distributed into 5 groups (4 treated, 1 control group, all on high fat diet). Each group was composed of 8 animals.
4-OH was aliquoted and kept at 4° C. […] Mice from groups 4 and 5 were treated twice daily with 50 and 100 mg/kg of compound 65a. All groups were treated by oral gavage. Treatment commenced on Day 0 and ended on Day 7 (FIG. 37A). Body weights were measured daily.

[5] = tested on: DIO-mice
Description: The objective of this study was to evaluate the effect of chronic administration of 4-hydroxyisoleucine (4-OH, compound 14a) and Rosiglitazone, administered alone or in combination, on food consumption and body weight gain of DIO-mice. Both parameters were monitored for 1 week prior to the commencement of treatment, then for the 28 days of treatment and for an additional 7 days post-treatment.
A total of 72 animals were used in the study. The animals were distributed into 6 groups (5 treated, 1 control group, all on high fat diet). Each group was composed of 12 animals. The mice were randomized according to body weight and basal glycemia values following a 5±0.5 hour fasting period.
For the four weeks of treatment, the test articles were dissolved in reverse osmosis water. 4-Hydroxyisoleucine was aliquoted and kept at 4° C. (administration to groups 2, 3, and 6), while Rosiglitazone was freshly prepared daily and kept at 4° C. between the AM and PM administration to groups 4, 5, and 6. Control animals received reverse osmosis water twice daily (group 1). Mice from groups 2 and 3 were treated twice daily with 4-OH at 50 and 100 mg/kg, respectively. Animals from groups 4 and 5 received 1.5 and 5 mg/kg of Rosiglitazone, respectively. […] All groups were treated by oral gavage. Treatment commenced on Day 0 and ended on Day 28 (FIGS. 18A and 18C.
Food consumption was measured and averaged on a weekly basis beginning one week before the start of treatment as shown in FIGS. 18B and 18D as week −1. Similarly, food consumption was monitored for one week after treatment was stopped and is shown as week 5 in FIGS. 18B and 18D, In FIG. 18B, the food consumption over time for various treatment groups is illustrated by the bar graph.

[6] = tested on: obese mice; assay: Compound 22 and 4-hydroxyisoleucine on weight gain of obese mice, 21 days; type: in vivo, C57BL/6 mice
Procedure: The objective of the following study was to evaluate the effect of the lactone form of 4-hydroxyisoleucine (compound 22) on the weight gain of obese mice. 40 C57BL/6 mice were fed a high fat diet (60% of calories from fat) for 6 weeks in order to induce obesity. Animals were than randomized to 5 study groups of 8 mice each according to their body weight values. Thereafter, the animals were treated orally twice daily with either the water vehicle, 50 mg/kg of compound 22, 100 mg/kg of compound 22, 50 mg/kg of 4-hydroxyisoleucine or 100 mg/kg of 4-hydroxyisoleucine. The treatment lasted 21 days and body weight of mice were determined daily from day 1 to day 21 of the study.

In the case of `N[C@H](C(=O)O)[C@@H]1CCCC[C@H]1O` [Compound 13e, (S)-2-amino-2-((1S,2R)-2-hydroxycyclohexyl)acetic acid], the “epididymal fat pad weight” value ([1]; 25 or 50 mg/kg twice daily) is reported as “reduction of epididymal fat pad weight” and the “body weight gain (delta of body weight from Day 0)” value ([1]; 25 or 50 mg/kg twice daily oral gavage) is reported as “reduction of body weight; also recorded: reduction in body weight gain compared to vehicle treated mice and this effect was dose-dependent”.

For `O=C(O)[C@@H]1C[C@H](O)CN1` [Compound 75, cis-4-hydroxyproline], the “body weight gain induced by the high fat diet” value (shortened to “body weight gain induced”) [2] was “reduced body weight gain induced by the high fat diet” and the lipid accumulation [3] was “dose-dependently decreased the lipid accumulation; also recorded: decrease of accumulation of lipids”.

With `CC1(O)CC(C(=O)O)NCC1O` (stereo not shown) [Compound 65a, 4-methyl-4,5-dihydroxypipecolic acid] the “efficacy relative to compound 14a” value [2] was “greater efficacy than the SRS isomer of 4-OH”, the “body weight gain induced” value [2] was “reduced body weight gain induced by the high fat diet” and the tolerability of treatment ([4]; 50 and 100 mg/kg twice daily oral gavage, one week) was “well tolerated”. For the same molecule, the weight gain ([4]; 50 and 100 mg/kg twice daily, first week of treatment) was “moderation of weight gain was observed” and the food consumption ([4]; first week of treatment) was “slight decrease in food consumption”.

In the case of `COC(=O)[C@H]1C[C@@H](O)CN1` [Compound 202], the “body weight gain induced” value [2] is reported as “reduced body weight gain induced by the high fat diet”.

`C[C@H]([C@@H](C)O)[C@@H](N)C(=O)O` [Compound 14aa, (2R,3S,4R)-4-Hydroxyisoleucine] was tested, and the “body weight gain induced” value [2] was “reduced body weight gain induced by the high fat diet”.

In the case of `CN(CCOc1ccc(CC2SC(=O)NC2=O)cc1)c1ccccn1` (stereo not shown) [Rosiglitazone, reference compound], the food consumption ([5]; Rosiglitazone 1.5 mg/kg alone) is reported as “increase in food consumption” and the weight ([5]; Rosiglitazone alone, relative to the other groups) is reported as “significant increase in weight relative to the other groups”.

`COC(=O)[C@@H]1C[C@H](O)CN1` [Compound 76, cis-4-hydroxyproline methyl ester HCl salt] was tested, and the “body weight gain induced” value [2] was “reduced body weight gain induced by the high fat diet” and the lipid accumulation ([3]; HCl salt) was “dose-dependently decreased the lipid accumulation; also recorded: decrease of accumulation of lipids”.

In the case of `CC1C(O)CN[C@@H]1C(=O)O` (stereo partly shown) [Compound 22], the body weight ([6]; 100 mg/kg orally twice daily, 21 days, vs water control, p<0.01) is reported as “significant reduction of body weight compared to the water control group”, the “white fat mass (epididymal fat)” value ([6]; 100 mg/kg, end of treatment, p<0.01) is reported as “loss of the white fat mass (epididymal fat)” and the “weight loss relative to 4-hydroxyisoleucine” value ([6]; same dose level of 100 mg/kg, p<0.05) is reported as “significantly greater than the weight loss caused by 4-hydroxyisoleucine”.

In the case of `CC(=O)N[C@@H]1C(=O)O[C@@H](C)[C@@H]1C` [Compound 104], the “body weight gain induced” value [2] is reported as “reduced body weight gain induced by the high fat diet”.

In the case of `CC(C)(C)C(O)CC(N)C(=O)O` (stereo not shown) [Compound 62, 2-amino-4-hydroxy-5,5-dimethyl-hexanoic acid], the “efficacy relative to compound 14a” value [2] is reported as “greater efficacy than the SRS isomer of 4-OH”, the “body weight gain induced” value [2] is reported as “reduced body weight gain induced by the high fat diet” and the lipid accumulation [3] is reported as “dose-dependently decreased the lipid accumulation; also recorded: decrease of accumulation of lipids”.
